# Experimental data taken from patent publication US20260364184A1, “COMPOUND BASED ON OXOISOINDOLINYL-SUBSTITUTED TETRAHYDROPYRIMIDINE-DIONE AND USE THEREOF” (GLUETACS THERAPEUTICS (SHANGHAI) CO., LTD., priority 2023, published 2026).
# Columns and labels:
# IRAK4 = target: T1, IRAK4 (Homo sapiens, UniProt Q9NWZ3); assay: Western blot degradation of IRAK4; format: cell-based; details: hPBMC Cell; 24 hours
# T1 construct: expression of target proteins in cells; endogenous in cells
# T1 sequence (Q9NWZ3 1-460): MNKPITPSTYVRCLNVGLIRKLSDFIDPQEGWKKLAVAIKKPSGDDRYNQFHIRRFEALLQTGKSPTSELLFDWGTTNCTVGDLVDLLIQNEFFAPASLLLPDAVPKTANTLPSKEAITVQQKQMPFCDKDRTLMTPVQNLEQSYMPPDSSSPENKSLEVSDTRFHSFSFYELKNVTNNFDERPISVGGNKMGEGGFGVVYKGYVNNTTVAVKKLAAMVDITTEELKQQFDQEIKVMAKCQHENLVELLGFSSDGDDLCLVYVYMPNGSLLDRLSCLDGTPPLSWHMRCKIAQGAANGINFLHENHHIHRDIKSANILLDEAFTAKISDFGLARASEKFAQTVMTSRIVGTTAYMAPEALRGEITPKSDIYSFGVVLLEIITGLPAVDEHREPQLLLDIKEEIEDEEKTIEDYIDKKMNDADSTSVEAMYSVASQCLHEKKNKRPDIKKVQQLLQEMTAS
# In short: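 Compound-treated cells harvested; lysates denatured 5 min at 95 °C, run on SDS-PAGE, blotted to NC membrane, blocked 1 h RT, probed with antibodies. Densitometry vs DMSO → DC50; target normalised to internal control → % remaining, degradation = 1 − remaining.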
# [1] = target: T2, human Cereblon WT GST-tagged protein (CRBN) (Homo sapiens, UniProt Q96SW2); assay: CRBN binding by HTRF (Cereblon binding kit); details: for inhibition at 0.5 µM: read-out: Inhibition Rate at 0.5 μM (%); for inhibition at 2 µM: read-out: Inhibition Rate at 2 μM (%)
# T2 construct: purchased CISBIO 64BDCRBNPEH
# In short: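 GST-tagged human Cereblon WT was incubated 3 h at room temperature with compound, thalidomide-Re tracer and Eu anti-GST antibody. Final compound concentrations were 10 to 0.00064 µM (7 points) or 2 and 0.5 µM. Inhibition rate was calculated from HTRF 665/620 nm ratios versus solvent and blank controls.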
# T2 sequence (Q96SW2 whole entry): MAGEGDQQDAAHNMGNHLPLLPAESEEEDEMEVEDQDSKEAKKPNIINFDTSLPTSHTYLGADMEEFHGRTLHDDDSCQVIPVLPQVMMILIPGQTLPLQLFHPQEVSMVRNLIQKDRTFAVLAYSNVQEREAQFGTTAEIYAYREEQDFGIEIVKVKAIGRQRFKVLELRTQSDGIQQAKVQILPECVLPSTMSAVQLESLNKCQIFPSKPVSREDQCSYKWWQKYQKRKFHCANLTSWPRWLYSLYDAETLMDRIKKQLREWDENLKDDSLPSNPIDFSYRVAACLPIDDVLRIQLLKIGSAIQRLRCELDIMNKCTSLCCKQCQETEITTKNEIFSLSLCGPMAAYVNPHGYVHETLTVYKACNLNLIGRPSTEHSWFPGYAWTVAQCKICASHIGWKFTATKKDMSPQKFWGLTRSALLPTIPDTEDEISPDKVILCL
Degradation of substrate protein IRAK4 (substrate protein remaining %) (IRAK4),inhibition at 0.5 µM [1] [%],inhibition at 2 µM [1] [%],Inhibition Rate at 0.5 μM (%) [1],Inhibition Rate at 2 μM (%) [1],SMILES
A (0%≤substrate protein remaining %≤80%),30 to 40,53 to 60,–,–,"O=C1CCN(N2C(=O)c3ccc(N4C5CC4CN(C[C@H]4CC[C@H](n6cc(NC(=O)c7cnn8ccc(N9C[C@H]%10C[C@@H]9CO%10)nc78)c(C(F)F)n6)CC4)C5)cc3C2=O)C(=O)N1 [GT-05242, 5-((1R,4R)-2-oxa-5-azabicyclo[2.2.1]heptan-5-yl)-N-(3-(difluoromethyl)-1-((1r,4R)-4-((6-(2-(2,4-dioxotetrahydropyrimidin-1(2H)-yl)-1,3-dioxoisoindolin-5-yl)-3,6-diazabicyclo[3.1.1]heptan-3-yl)methyl)cyclohexyl)-1H-pyrazol-4-yl)pyrazolo[1,5-a]pyrimidine-3-carboxamide]"
A (0%≤substrate protein remaining %≤80%),–,–,a3 (30% < a3 ≤ 40%),a6 (60% < a6 ≤ 80%),"O=C1CCN(N2Cc3cc(CN4CCC(n5cc(NC(=O)c6coc(-c7ccnc(NCC8CC8)c7)n6)c(C(F)F)n5)CC4)ccc3C2=O)C(=O)N1 [GT-04951, 2-(2-((cyclopropylmethyl)amino)pyridin-4-yl)-N-(3-(difluoromethyl)-1-(1-((2-(2,4-dioxotetrahydropyrimidin-1(2H)-yl)-1-oxoisoindolin-5-yl)methyl)piperidin-4-yl)-1H-pyrazol-4-yl) oxazole-4-carboxamide]"
–,30 to 40,40 to 53,–,–,"N#Cc1ccc(O[C@H]2CC[C@H](NC(=O)c3ccc(N4CCC(CN5CC6CCC5CN6c5ccc6c(c5)C(=O)N(N5CCC(=O)NC5=O)C6=O)CC4)nn3)CC2)cc1Cl (stereo partly drawn) [GT-05832, N-((1r,4r)-4-(3-chloro-4-cyanophenoxy)cyclohexyl)-6-(4-((5-(2-(2,4-dioxotetrahydropyrimidin-1(2H)-yl)-1,3-dioxoisoindolin-5-yl)-2,5-diazabicyclo[2.2.2]octan-2-yl)methyl)piperidin-1-yl)pyridazine-3-carboxamide]"
A (0%≤substrate protein remaining %≤80%),20 to 30,53 to 60,–,–,O=C1CCN(N2Cc3cc(CN4CCC(n5cc(NC(=O)c6cnn7ccc(N8CCOCC8)nc67)c(C(F)F)n5)CC4)ccc3C2=O)C(=O)N1 [GT-05749]
A (0%≤substrate protein remaining %≤80%),–,–,a2 (20% < a2 ≤ 30%),a6 (60% < a6 ≤ 80%),"O=C1CCN(N2Cc3cc(CN4CCC(n5cc(NC(=O)c6cnn7ccc(N8C[C@H]9C[C@@H]8CO9)nc67)c(C(F)F)n5)CC4)ccc3C2=O)C(=O)N1 [GT-05028, 5-((1R,4R)-2-oxa-5-azabicyclo[2.2.1]heptan-5-yl)-N-(3-(difluoromethyl)-1-(1-((2-(2,4-dioxotetrahydropyrimidin-1(2H)-yl)-1-oxoisoindolin-5-yl)methyl)piperidin-4-yl)-1H-pyrazol-4-yl)pyrazolo[1,5-a]pyrimidine-3-carboxamide]"
A (0%≤substrate protein remaining %≤80%),10 to 20,60 to 80,–,–,"CC(C)(O)c1cc2nc(C3CCN(Cc4ccc5c(c4)CN(N4CCC(=O)NC4=O)C5=O)CC3)oc2cc1NC(=O)c1cccc(C(F)(F)F)n1 [GT-05748, N-(2-(1-((2-(2,4-dioxotetrahydropyrimidin-1(2H)-yl)-1-oxoisoindolin-5-yl)methyl)piperidin-4-yl)-5-(2-hydroxypropan-2-yl)benzo[d]oxazol-6-yl)-6-(trifluoromethyl) picolinamide]"
–,30 to 40,30 to 40,–,–,"N#Cc1ccc(O[C@H]2CC[C@H](NC(=O)c3ccc(N4CCC(CN5C[C@@H]6C[C@H]5CN6c5ccc6c(c5)C(=O)N(N5CCC(=O)NC5=O)C6=O)CC4)nn3)CC2)cc1Cl [GT-05226, N-((1r,4r)-4-(3-chloro-4-cyanophenoxy)cyclohexyl)-6-(4-(((1S,4S)-5-(2-(2,4-dioxotetrahydropyrimidin-1(2H)-yl)-1,3-dioxoisoindolin-5-yl)-2,5-diazabicyclo[2.2.1]heptan-2-yl)methyl)piperidin-1-yl)pyridazine-3-carboxamide]"
–,30 to 40,20 to 30,–,–,"CC1(C)[C@H](NC(=O)c2ccc(N3CCC(CN4CC5CCC4CN5c4ccc5c(c4)C(=O)N(N4CCC(=O)NC4=O)C5=O)CC3)nc2)C(C)(C)[C@H]1Oc1ccc(C#N)c(Cl)c1 (stereo partly drawn) [GT-05834, N-((1r,3r)-3-(3-chloro-4-cyanophenoxy)-2,2,4,4-tetramethylcyclobutyl)-6-(4-((5-(2-(2,4-dioxotetrahydropyrimidin-1(2H)-yl)-1,3-dioxoisoindolin-5-yl)-2,5-diazabicyclo[2.2.2]octan-2-yl)methyl)piperidin-1-yl)nicotinamide]"
A (0%≤substrate protein remaining %≤80%),20 to 30,60 to 80,–,–,"O=C1CCN(N2C(=O)c3cccc(N4CCC(CN5CCC(n6cc(NC(=O)c7cnn8ccc(N9C[C@H]%10C[C@@H]9CO%10)nc78)c(C(F)F)n6)CC5)CC4)c3C2=O)C(=O)N1 [GT-05285, 5-((1R,4R)-2-oxa-5-azabicyclo[2.2.1]heptan-5-yl)-N-(3-(difluoromethyl)-1-(1-((1-(2-(2,4-dioxotetrahydropyrimidin-1(2H)-yl)-1,3-dioxoisoindolin-4-yl)piperidin-4-yl)methyl)piperidin-4-yl)-1H-pyrazol-4-yl)pyrazolo[1,5-a]pyrimidine-3-carboxamide]"
